Experimental data as given in patent publication US8932558B2, “Multi-subunit biological complexes for treatment of plaque-associated diseases” (Plaxgen Inc, priority 2007, dated 2015).
Where a name gives a salt, the structure may show the parent alone. One block for each compound: values may come before it.

Columns and labels:
CP aggregates [1] = assay: Binding of proteins with calcium containing aggregates; conditions: 2 μg protein, 37° C., 1 hr
Description: (§1) The Proteins used for binding with the aggregates are diluted first in the PBS to make 1 mg/ml concentration and then stored at −20° C. as 50 μl aliquots. These samples are then thawed on ice and centrifuged (10,000 rpm, 10 min, 4° C.) to remove any precipitation and the supernatant containing only the soluble proteins are used for binding studies. To start with, for identification of proteins binding with calcium containing aggregates, a number of proteins are screened individually with the aggregates. Binding experiment is performed in 100 μl reaction (50 μl PBS buffer and 50 μl of individual aggregates) containing 2 μg of protein and the mixtures are incubated at 37° C. for 1 hr. For control experiments, protein (2 μg) is mixed in 100 μl PBS without aggregates. After the binding, the mixture is centrifuged (2500 rpm, 2 min, 20° C.) and the pellet is washed four times with 200 μl PBST (Tween 20, 0.05%). After each wash the supernatant is discarded and the complexes are transferred to a new microfuge tube to avoid any carry-over of the proteins. The calcium containing aggregates-protein complexes are suspended in 20 μl of PBS to which 5 μl of EDTA (25 mM final concentration) is added for solubilization of the complexes. Finally, the solublized samples are used for protein quantitation using protein estimation kit (Pierce, Ill.) and the data are used in the Microsoft Excel program to generate Graph 1 (FIG. 4). All the binding experiments and subsequent CPA experiments are carried out in low protein bind 1.7 ml centrifuge tubes (Effentorf, Calif.). For all the following binding experiments the same buffer, centrifugation and washing conditions are used.

CO aggregates = assay: as above; conditions: 2 μg protein, 37° C., 1 hr
Description: as §1

[2] = molecular target: iron-loaded abeta42 templates (Homo sapiens, UniProt P05067); assay: Binding of proteins to iron-loaded abeta42 templates; conditions: SDS-PAGE
Excerpt: FIG. 46 illustrates an example involving the identification of proteins that bind to iron-loaded abeta42 templates. The iron-loaded abeta42 templates are combined with known and unknown cell extracts (CE) and subjected to CPA, as described herein. To determine which proteins successfully bind the templates, the final template complexes are suspended in denaturing sample buffer, boiled, and loaded into SDS-PAGE gel. The gels are then stained with coomassie blue or silver stain in order to visualize the binding proteins. […] In the negative control, no significant binding is observed when the proteins are incubated in the absence of the templates.
In experiments such as these, known and unknown cell extract proteins that are used for the complex formation with the aggregates are diluted in PBS to a 1 mg/ml concentration and stored at −70° C. as 50 μl aliquots. These samples are thawed on ice and centrifuged (13000 rpm, 15 min, 4° C.) to remove any precipitation. The supernatant containing soluble proteins is used to form complexes with the aggregates. Various proteins are screened against the iron loaded abeta42 aggregates for examining their binding. Binding experiments are performed in PBS (50 μl, pH 7.3) containing 6.0 μg of iron loaded abeta 42 aggregates and 1.0 μg of each protein. The mixture is incubated at 37° C. for 1 hr. After that, the samples are centrifuged (9000 rpm, 9 min, 15° C.) and the complexes are washed five times with 100 μl PBST (PBS containing 0.05% of Tween 20). After each wash, the supernatant is discarded and the complexes are transferred to a new tube to avoid any carry-over of the proteins. The final complexes are suspended in 20 μl of PBS to which 5.0 μl of denaturing sample solublising buffer (Bio Rad, CA, USA) is added. After boiling the samples for 10 min they are loaded into 4-20% SDS-PAGE (Cambrex Bio Sci, ME, USA). The proteins in the gels are detected using coomassie blue or silver stain (Owl silver stain, Pierce, Ill., USA). All the binding and the CPA experiments are carried out in low protein bind 1.7 ml centrifuge tubes (Effentorf, Calif.).

[3] = system: iron loaded abeta42 aggregates mixed with CE proteins; assay: Proteolysis of amyloid plaque complexes assembled on iron loaded abeta42 aggregates; assay type: biochemical; conditions: 20 ng protease, 37° C., 1 hr
Description: This example illustrates the use of the invention to evaluate the proteolytic degradation of the amyloid complexes. For example, iron loaded abeta42 aggregates are mixed with CE proteins, and the resulting template complexes are treated with five different serine proteases. More specifically, nine independent reactions are carried out with each containing 5.0 μg of the iron-loaded aggregates of abeta42 and 6.0 μg of the CE proteins. After incubation and washing, the complexes are suspended in 50 μl of PBS. The nine complexes are sub-divided into two groups, with six individual complexes comprising Group I and three complexes comprising Group II. In order to interrogate the role of the plasminogen (PLG) activation system, which is implicated in the catabolism of amyloid peptides as well as the pathobiology of amyloid diseases (Melchor J P et al, 2003; Van Nostrand W E et al, 1999; Kranenburg O, 2005), the Group II complexes are subjected to another cycle of binding with both PLG (0.5 μg) and BSA (0.5 μg) proteins. After binding and washing, the PLG and BSA bound plaques complexes are suspended in 50 μl of PBS.
For proteolysis analysis, five of the six Group I template complexes are incubated with 20 ng of each protease (plasnin, chymotrypsin, trypsin, proteinase K and urokinase). The remaining complex is used as a control without protease treatment. Among three complexes of the Group II containing PLG attached to them, one is treated with u-PA (20 ng), a second is treated with t-PA (20 ng) and the third complex is used as a control without protease treatment. All these plaque complexes are incubated at 37° C. for 1 hr and after every 15 min, the tubes are gently tapped in order to encourage mixing. After washing, both the proteases-treated and control plaque complexes are suspended in 20 μl PBS. The complexes are boiled for 10 min with sample solubilizing buffer and loaded in to 4-20% gradient SDS-PAGE. Further, the gels are processed for silver staining and the results are documented for further analysis.

[4] = molecular target: T1, PLG attached to complexes of iron loaded abeta42 aggregates (Homo sapiens, UniProt P00747); assay: Activation of complex-bound PLG by u-PA or t-PA; assay type: biochemical
T1 construct: Lys-Plasminogen (PLG); purchased Enzyme Research Laboratories (IN, USA)
Description: This example illustrates a method of evaluating the conformation and functionality of PLG attached to template complexes. Three groups of experiments are carried out to add the PLG at different layers of plaque complex formation. Group I includes three independent reactions containing both the PLG and BSA (0.5 μg each) that are added in the first cycle of the complex formation with the templates (5.0 μg). Group II includes three reactions to which both the PLG and BSA (0.5 μg each) are added in the first cycle of complex formation followed by another cycle of binding of the resulting complexes with the CE proteins (6.0 μg). Similarly, Group III includes three reactions each containing 5.0 μg of CE proteins and 5.0 μg of the abeta42 templates for complex formation in the first cycle of binding. The resulting complexes are subjected to another cycle of binding with both the PLG and BSA (0.5 μg each). […] After treating with the PLG activators, all the complexes are washed and finally suspended in 20 μl of PBS. After boiling the complexes for 10 min in sample solublizing buffer they are loaded into 4-20% gradient SDS-PAGE. Further, the gel is processed for silver staining and the results are documented for analysis. […]

[5] = system: thrombus generated from the in vitro assembled plaques complexes; assay: Thrombolytic assay with PLG cascade proteins; assay type: biochemical; conditions: thrombus from cholesterol, lipids, CP and CO complexes
Description: To examine this, both PLG and PLG activators are used to target these clots. Thrombolytic assays are carried out in 100 μl reaction containing thrombus, generated from 100 μl of aggregates or plaque complexes, 1 μg of PLG and 20 ng of u-PA or t-PA in PBS buffer. The reactions are incubated at 37° C. for 1 hr and after every 15 min the tubes are gently tapped to mix the contents. After 1 hr incubation, 1 ml of PBS is added to all the tubes and the samples are visually examined for dissolution of the thrombus.
The thrombus generated from the cholesterol, lipids, CP, and CO complexes are incubated separately with PLG, u-PA and t-PA to examine whether these proteins individually could dissolve the clots.
This could be due to the inhibition of u-PA by the PAI-1 thereby preventing the activation of the PLG. In the next experiment, the aggregates of CP-Cholesterol, CP-Lipids, CP-Cholesterol-Lipids, Cholesterol-Lipids, CO-Cholesterol and CO-Lipids are individually used in CPA for five cycles to assemble complexes followed by their thrombus generation.
The example depicted in FIG. 18 illustrates the dissolution of thrombi by PLG and u-PA. […] Both the clots and the dissolved complexes are further examined under microscope to confirm the visual examination (FIGS. 18a, b, c and d). The thrombus formed in the urine is also dissolved by the action of PLG and u-PA.

[6] = system: CO, lipid and cholesterol aggregates formations; assay: Effect of PGN27 on CO, lipid and cholesterol aggregates formation
CP aggregates formation = assay: Screen of known drugs for prevention of CP aggregates formation; conditions: for CP aggregates formation, dose dependence: sodium phosphate dibasic and calcium chloride 4 mM each
[7] = system: plaque induced chronic inflammation; assay: Drug treatment of mice with plaque induced chronic inflammation; conditions: 5-10 mg/kg per day orally, 8 weeks
CP aggregates [8] = assay: Binding of PGN27 to CP aggregates and cyclic plaque assembly (CPA)
[9] = system: thrombus, generated from the CP-Chl aggregates; assay: Effect of PGN27 on dissolution of thrombus; conditions: 2 mM, 1 hr
[10] = system: plaque accumulation in the heart tissues; assay: Drug treatment of asymptomatic induced atherosclerotic mice, histochemical analysis of heart tissues; conditions: 5-10 mg/kg per day orally, 8 weeks
[11] = system: CP, CC, CO, and CaPPD aggregates; assay: Binding of proteins with calcium containing aggregates (any of the four); conditions: 2 μg protein, 37° C., 1 hr
Description: as §1, with “The calcium containing aggregates-protein complexes are suspended in 20 μl of PBS to which 5 μl of EDTA (25 mM final concentration) is added for solubilization of the complexes.” left out, “All the binding experiments and subsequent CPA experiments are carried out in low protein bind 1.7 ml centrifuge tubes (Effentorf, Calif.). For all the following binding experiments the same buffer, centrifugation and washing conditions are used.” left out

Sequence of iron-loaded abeta42 templates (P05067 672-713 limits assumed): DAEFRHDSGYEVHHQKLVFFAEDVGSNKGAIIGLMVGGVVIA
T1 sequence (P00747 97-810, one chain of several): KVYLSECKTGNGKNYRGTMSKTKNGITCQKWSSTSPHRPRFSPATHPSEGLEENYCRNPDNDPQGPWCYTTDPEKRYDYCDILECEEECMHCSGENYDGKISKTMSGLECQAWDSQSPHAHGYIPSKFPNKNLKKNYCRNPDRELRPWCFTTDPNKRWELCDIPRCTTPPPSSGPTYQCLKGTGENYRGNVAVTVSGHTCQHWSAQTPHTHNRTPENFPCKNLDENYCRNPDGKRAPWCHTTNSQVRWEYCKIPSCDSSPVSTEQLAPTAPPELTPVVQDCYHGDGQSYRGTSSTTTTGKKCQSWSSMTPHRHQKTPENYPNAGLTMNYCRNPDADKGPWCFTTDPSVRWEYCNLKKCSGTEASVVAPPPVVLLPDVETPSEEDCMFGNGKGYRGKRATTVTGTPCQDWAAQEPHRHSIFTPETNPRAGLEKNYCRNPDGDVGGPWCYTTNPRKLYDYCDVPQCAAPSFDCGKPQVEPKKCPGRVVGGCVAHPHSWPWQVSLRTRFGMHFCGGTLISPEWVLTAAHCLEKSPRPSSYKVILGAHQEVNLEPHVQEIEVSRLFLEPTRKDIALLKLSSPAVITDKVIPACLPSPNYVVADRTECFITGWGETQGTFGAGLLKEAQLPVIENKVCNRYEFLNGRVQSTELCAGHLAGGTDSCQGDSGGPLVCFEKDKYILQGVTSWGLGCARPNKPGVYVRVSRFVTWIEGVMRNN

Binding with the CP aggregates (CP aggregates [1]): detectable binding
Compound: C3: complement factor 3

Compound: FIX: coagulation factor IX
Binding with the CP aggregates (CP aggregates [1]): detectable binding
Binding with the CO aggregates (CO aggregates): detected for binding
Binding with iron-loaded abeta42 templates [2]: bind with the templates

Compound: trypsin
Degradation of proteins bound to the aggregates [3]: degraded

Compound: PLG: plasminogen
Activation of PLG bound in first cycle compared to second cycle, increasing u-PA ([4]; 25, 50, 100 ng u-PA): exhibits resistance even when incubated with increased concentrations of the u-PA
Activation of PLG bound in first cycle compared to second cycle ([4]; u-PA (20 ng) or t-PA): detectable level of resistance to activation
Binding with the CP aggregates (CP aggregates [1]): detectable binding
Binding with iron-loaded abeta42 templates [2]: bind with the templates
Dissolution of thrombus, protein incubated separately [5]: did not show any dissolution

Compound: CB: complement factor B
Binding with iron-loaded abeta42 templates [2]: bind with the templates

Compound: rhHGF: recombinant human hepatocyte growth factor
Binding with iron-loaded abeta42 templates [2]: bind with the templates

Compound: CD: complement factor D
Binding with iron-loaded abeta42 templates [2]: bind with the templates

Compound: CN(C)[C@@H]1C(O)=C(C(N)=O)C(=O)[C@@]2(O)C(O)=C3C(=O)c4c(O)cccc4[C@@](C)(O)[C@H]3C[C@@H]12 [PGN27, tetracycline hydrochloride]
Inhibition of CO, lipid and cholesterol aggregates formations [6]: did not inhibit
CP aggregates formation in the presence of antibiotic (CP aggregates formation; 5 mM drug, 5 mM sodium phosphate dibasic, 5 mM calcium chloride, 30 min 37° C.): prevented the CP aggregates formation
CP aggregates formation, dose dependence (CP aggregates formation; 0.5 and 0.25 mM drug): CP aggregates formation occurred
CP aggregates formation, dose dependence (CP aggregates formation; 4, 2 and 1 mM drug): did not show the CP aggregates formation
Symptoms of plaque inflammation compared to the control animal [7]: reduced symptoms of plaque inflammation
Binding with the CP aggregates (colorless to yellow) (CP aggregates [8]; 2 mM, 37° C., 30 min): specific and stable binding
Effect on binding of proteins with the CP aggregates in CPA (CP aggregates [8]; CP-PGN27 complexes, four cycles of CPA, gel analysis): did not compete or affect binding of the proteins
Dissolution of the thrombus [9]: no dissolution of the thrombus
Plaque accumulation in heart tissues, histochemical analysis [10]: reduced plaque accumulation

Compound: HIN: human insulin
Binding with any of the CP, CC, CO, CaPPD aggregates [11]: no detectable binding
Binding with iron-loaded abeta42 templates [2]: no detectable binding

Compound: ProS: protein S
Binding with the CP aggregates (CP aggregates [1]): detectable binding
Binding with iron-loaded abeta42 templates [2]: bind with the templates

Compound: chymotrypsin
Degradation of proteins bound to the aggregates [3]: degraded
